Data published in patent US6486185B1, “3-heteroarylidene-2-indolinone protein kinase inhibitors” (Sugen, Inc., priority 1997, dated 2002).

Tests used:
PDGFR = PDGFR (Homo sapiens, UniProt P09619); experiment: PDGF-R ELISA (cellular kinase assay); assay type: cell-based; settings: 50% inhibition of PTK activity over control
Procedure: The cellular/catalytic assays described herein are performed in an ELISA format. The general procedure is a follows: a compound is introduced to cells expressing the test kinase, either naturally or recombinantly, for some period of time after which, if the test kinase is a receptor, a ligand known to activate the receptor's activity is added. The cells are lysed and the lysate is transferred to the wells of an ELISA plate previously coated with a specific antibody recognizing the substrate of the enzymatic phosphorylation reaction. Non-substrate components of the cell lysate are washed away and the amount of phosphorylation on the substrate is detected with an antibody specifically recognizing phosphotyrosine compared with control cells that were not contacted with a test compound.
All cell culture media, glutamine, and fetal bovine serum can be purchased from Gibco Life Technologies (Grand Island, N.Y.) unless otherwise specified. All cells are grown in a humid atmosphere of 90-95% air and 5-10% CO2 at 37° C. All cell lines are routinely subcultured twice a week and are negative for mycoplasma as determined by the Mycotect method (Gibco).
For ELISA assays, cells (U1242, obtained from Joseph Schlessinger, NYU) are grown to 80-90% confluency in growth medium (MEM with 10% FBS, NEAA, 1 mM NaPyr and 2 mM GLN) and seeded in 96-well tissue culture plates in 0.5% serum at 25,000 to 30,000 cells per well. After overnight incubation in 0.5% serum-containing medium, cells are changed to serum-free medium and treated with test compound for 2 hr in a 5% CO2, 37° C. incubator. Cells are then stimulated with ligand for 5-10 minute followed by lysis with HNTG (20 mM Hepes, 150 mM NaCl, 10% glycerol, 5 mM EDTA, 5 mM Na3VO4, 0.2% Triton X-100, and 2 mM NaPyr). Cell lysates (0.5 mg/well in PBS) are transferred to ELISA plates previously coated with receptor-specific antibody and which had been blocked with 5% milk in TBST (50 mM Tris-HCl pH 7.2, 150 mM NaCl and 0.1% Triton X-100) at room temperature for 30 min. Lysates are incubated with shaking for 1 hour at room temperature. The plates are washed with TBST four times and then incubated with polyclonal anti-phosphotyrosine antibody at room temperature for 30 minutes. Excess anti-phosphotyrosine antibody is removed by rinsing the plate with TBST four times. Goat anti-rabbit IgG antibody is added to the ELISA plate for 30 min at room temperature followed by rinsing with TBST four more times. ABTS (100 mM citric acid, 250 mM Na2HPO4 and 0.5 mg/mL 2,2′-azino-bis(3-ethylbenzthiazoline-6-sulfonic acid)) plus H2O2 (1.2 mL 30% H2O2 to 10 mL ABTS) is added to the ELISA plates to start color development. Absorbance at 410 nm with a reference wavelength of 630 nm is recorded about 15 to 30 min after ABTS addition.

HER2 Kinase = HER2 Kinase (Homo sapiens, UniProt P04626); experiment: HER-2 ELISA: EGF receptor-HER2 chimeric receptor assay in whole cells; assay type: cell-based; settings: 50% inhibition of PTK activity over control
Procedure: The cellular/catalytic assays described herein are performed in an ELISA format. […] The cells are lysed and the lysate is transferred to the wells of an ELISA plate previously coated with a specific antibody recognizing the substrate of the enzymatic phosphorylation reaction. Non-substrate components of the cell lysate are washed away and the amount of phosphorylation on the substrate is detected with an antibody specifically recognizing phosphotyrosine compared with control cells that were not contacted with a test compound. HER-2 ELISA […] EGF Receptor-HER2 Chimeric Receptor Assay in Whole Cells. HER2 kinase activity in whole EGFR-NIH3T3 cells are measured as described below: Materials and Reagents. The following materials and reagents can be used to conduct the assay: a. EGF: stock concentration: 16.5 ILM; EGF 201, TOYOBO, Co., Ltd. Japan. b. 05-101 (UBI) (a monoclonal antibody recognizing an EGFR extracellular domain). c. Anti-phosphotyrosine antibody (anti-Ptyr) (polyclonal)(see, Fendley, et al., supra). d. Detection antibody: Goat anti-rabbit lgG horse radish peroxidase conjugate, TAGO, Inc., Burlingame, Calif. e. TBST buffer: [table] f. HNTG 5×stock: [table] g. ABTS stock: [table] h. Stock reagents of: [table] Procedure. The following protocol is used: A. Pre-coat ELISA Plate […] Coat ELISA plates (Corning, 96 well, Cat. #25805-96) with 05-101 antibody at 0.5 µg per well in PBS, 100 μL final volume/well, and store overnight at 4° C. Coated plates are good for up to 10 days when stored at 4° C. 2. On day of use, remove coating buffer and replace with 100 μL blocking buffer (5% Carnation Instant Non-Fat Dry Milk in PBS). Incubate the plate, shaking, at room temperature (about 23° C. to 25° C.) for 30 minutes. Just prior to use, remove blocking buffer and wash plate 4 times with TBST buffer. B. Seeding Cells […] An NIH3T3 cell line overexpressing a chimeric receptor containing the EGFR extracellular domain and intracellular HER2 kinase domain can be used for this assay. 2. Choose dishes having 80-90% confluence for the experiment. […]

HER2 Kinase, sequence (P00533 25-645): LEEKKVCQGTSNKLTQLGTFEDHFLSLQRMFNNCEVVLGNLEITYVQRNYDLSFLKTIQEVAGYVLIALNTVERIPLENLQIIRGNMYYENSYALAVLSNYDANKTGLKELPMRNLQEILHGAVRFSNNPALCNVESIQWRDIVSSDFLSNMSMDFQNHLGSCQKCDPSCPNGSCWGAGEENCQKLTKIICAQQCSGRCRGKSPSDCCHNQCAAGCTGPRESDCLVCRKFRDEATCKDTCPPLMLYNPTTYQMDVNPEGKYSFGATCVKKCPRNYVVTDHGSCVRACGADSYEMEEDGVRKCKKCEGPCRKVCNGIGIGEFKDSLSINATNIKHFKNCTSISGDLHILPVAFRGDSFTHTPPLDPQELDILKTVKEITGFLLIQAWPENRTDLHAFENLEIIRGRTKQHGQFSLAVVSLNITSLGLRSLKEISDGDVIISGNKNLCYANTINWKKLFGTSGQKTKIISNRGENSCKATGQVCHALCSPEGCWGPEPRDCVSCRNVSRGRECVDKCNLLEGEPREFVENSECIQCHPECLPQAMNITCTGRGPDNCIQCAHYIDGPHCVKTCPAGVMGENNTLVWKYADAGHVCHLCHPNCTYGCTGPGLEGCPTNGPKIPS
HER2 Kinase, sequence (P04626 676-1255): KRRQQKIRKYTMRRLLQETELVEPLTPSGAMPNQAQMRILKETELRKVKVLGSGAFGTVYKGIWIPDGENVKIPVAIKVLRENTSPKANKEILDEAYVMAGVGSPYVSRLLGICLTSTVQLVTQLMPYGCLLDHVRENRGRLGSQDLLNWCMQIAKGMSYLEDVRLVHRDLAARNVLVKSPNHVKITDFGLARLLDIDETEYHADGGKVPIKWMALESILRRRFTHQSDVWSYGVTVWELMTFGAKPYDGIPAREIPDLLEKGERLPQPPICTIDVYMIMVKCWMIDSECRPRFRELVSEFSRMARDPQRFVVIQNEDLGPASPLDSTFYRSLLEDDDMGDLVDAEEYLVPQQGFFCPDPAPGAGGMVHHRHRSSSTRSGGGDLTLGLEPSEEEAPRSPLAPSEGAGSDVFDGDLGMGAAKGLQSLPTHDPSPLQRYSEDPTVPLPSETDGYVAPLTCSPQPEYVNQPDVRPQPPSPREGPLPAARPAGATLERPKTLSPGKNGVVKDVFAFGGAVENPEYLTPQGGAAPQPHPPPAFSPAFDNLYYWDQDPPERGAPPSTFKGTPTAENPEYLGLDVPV
PDGFR, sequence (P09619 33-1106): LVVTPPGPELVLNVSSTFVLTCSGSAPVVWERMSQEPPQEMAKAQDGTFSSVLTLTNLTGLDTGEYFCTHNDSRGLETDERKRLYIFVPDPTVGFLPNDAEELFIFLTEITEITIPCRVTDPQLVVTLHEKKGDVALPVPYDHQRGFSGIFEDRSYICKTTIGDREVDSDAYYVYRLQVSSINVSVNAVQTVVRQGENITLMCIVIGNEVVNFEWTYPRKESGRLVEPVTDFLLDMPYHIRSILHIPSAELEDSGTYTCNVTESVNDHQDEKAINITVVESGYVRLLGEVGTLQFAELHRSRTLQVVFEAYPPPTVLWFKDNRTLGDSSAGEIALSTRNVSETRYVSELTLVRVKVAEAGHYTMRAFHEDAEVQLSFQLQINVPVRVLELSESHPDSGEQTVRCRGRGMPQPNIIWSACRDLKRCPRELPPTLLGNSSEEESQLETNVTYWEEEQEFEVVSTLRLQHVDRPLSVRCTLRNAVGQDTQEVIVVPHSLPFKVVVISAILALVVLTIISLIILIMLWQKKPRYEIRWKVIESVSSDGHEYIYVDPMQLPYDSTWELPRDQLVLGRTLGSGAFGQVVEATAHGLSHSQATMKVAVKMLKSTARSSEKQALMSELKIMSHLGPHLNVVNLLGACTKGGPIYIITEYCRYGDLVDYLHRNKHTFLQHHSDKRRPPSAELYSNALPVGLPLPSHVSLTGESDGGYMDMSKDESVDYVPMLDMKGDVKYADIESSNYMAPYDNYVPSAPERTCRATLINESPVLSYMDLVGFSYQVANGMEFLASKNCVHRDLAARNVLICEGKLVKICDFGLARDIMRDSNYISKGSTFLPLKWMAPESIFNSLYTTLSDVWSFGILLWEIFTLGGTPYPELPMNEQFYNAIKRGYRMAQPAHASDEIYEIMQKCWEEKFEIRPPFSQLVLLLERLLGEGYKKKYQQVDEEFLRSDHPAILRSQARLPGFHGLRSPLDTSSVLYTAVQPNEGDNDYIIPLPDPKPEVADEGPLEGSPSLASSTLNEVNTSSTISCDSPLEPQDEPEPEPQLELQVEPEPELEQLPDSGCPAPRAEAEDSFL

## CCOC(=O)c1[nH]c(C=C2C(=O)Nc3ccccc32)c(C(C)=O)c1C [3-(4-acetyl-2-ethoxycarbonyl-3-methylpyrrol-5-methylidenyl)-2-indolinone]
PDGFR
  IC50: > 10 µM

## CCOC(=O)c1c[nH]c(C=C2C(=O)Nc3ccccc32)c1C [3-(4-ethoxycarbonyl-3-methylpyrrol-2-methylidenyl)-2-indolinone]
PDGFR
  IC50: > 100 µM
HER2 Kinase
  IC50: > 100 µM

## CCOC(=O)CCc1c(C(=O)OCC)[nH]c(C=C2C(=O)Nc3ccccc32)c1CC(=O)OCC [3-[2-ethoxycarbonyl-3-(2-ethoxycarbonylethyl)-4-ethoxycarbonylmethyl)pyrrol-5-methylidenyl)-2-indolinone]
PDGFR
  IC50: > 10 µM
HER2 Kinase
  IC50: > 10 µM

## COC(=O)CCc1c[nH]c(C=C2C(=O)Nc3cc(OC)c(OC)cc32)c1C [3-[4-(2-methoxycarbonylethyl)-3-methylpyrrol-2-methylidenyl]-5,6-dimethoxy-2-indolinone]
PDGFR
  IC50: 22.3 µM
HER2 Kinase
  IC50: > 50 µM
